Laboratory results reported in patent publication US20070203091A1, “Methods and therapeutic compositions for improving liver, blood flow and skeletal muscle functions in advanced diseases and aging” (priority 2006, published 2007).

Experiments:
[1] = ATP pharmacokinetics: blood plasma (extracellular) ATP levels, Phase I study; type: in vivo, human; details: for Initial Extracellular ATP Concentration, Median: ITT
Experimental: (§1) The solution was administered by continuous intravenous infusions using an Ivac or similar infusion device through venous access in a peripheral vein. If venous access was a problem, either a Hickman catheter or its equivalent, or an Infusaport or its equivalent was inserted to provide vascular access.
(§2) The 50 μg/kg/min dose could be reduced to 25 μg/kg/min if adverse effects occurred. […] Succeeding infusions in that patient were at the infusion dose tolerated at the end of the previous treatment. If adverse events occurred in patients being infused at 25 μg/kg/min, the infusions were terminated and the patient received no additional infusions.

[2] = ATP pharmacokinetics: initial ATP release rate from red blood cells into blood plasma, Phase I study; type: in vivo, human
Experimental: as §1, §2

## Nc1ncnc2c1ncn2[C@@H]1O[C@H](COP(=O)(O)OP(=O)(O)OP(=O)(O)O)[C@@H](O)[C@H]1O [ATP, adenosine 5′-triphosphate]
[1]; ATP continuously for eight hours
  blood plasma (extracellular) ATP levels: increases
[1]; Week 1 (Infusion 1), 4 hours into infusion, N=13
  Initial Extracellular ATP Concentration, Median: 0.109 µM
[1]; Week 1 (Infusion 1), 8.25 hours, N=1
  Initial Extracellular ATP Concentration, Median: 0.141 µM
[1]; Week 1 (Infusion 1), 9 hours, N=10
  Initial Extracellular ATP Concentration, Median: 0.150 µM
[1]; Week 1 (Infusion 1), 10 hours, N=12
  Initial Extracellular ATP Concentration, Median: 0.091 µM
[1]; Week 1 (Infusion 1), 11 hours, N=12
  Initial Extracellular ATP Concentration, Median: 0.062 µM
[1]; Week 1 (Infusion 1), 12 hours, N=11
  Initial Extracellular ATP Concentration, Median: 0.044 µM
[1]; Week 1 (Infusion 1), 14 hours, N=8
  Initial Extracellular ATP Concentration, Median: 0.029 µM
[1]; Week 1 (Infusion 1), 16 hours, N=10
  Initial Extracellular ATP Concentration, Median: 0.050 µM
[1]; Week 1 (Infusion 1), 20 hours, N=8
  Initial Extracellular ATP Concentration, Median: 0.052 µM
[1]; Week 1 (Infusion 1), 24 hours, N=12
  Initial Extracellular ATP Concentration, Median: 0.079 µM
[1]; Week 1 (Infusion 1), […], N=10
  Initial Extracellular ATP Concentration, Median: 0.238 µM
[1]; Week 3 (Infusion 3), 4 hours into infusion, N=9
  Initial Extracellular ATP Concentration, Median: 0.200 µM
[1]; Week 3 (Infusion 3), 8 hours (before the end), N=9
  Initial Extracellular ATP Concentration, Median: 0.240 µM
[1]; Week 3 (Infusion 3), 8.25 hours, N=1
  Initial Extracellular ATP Concentration, Median: 0.055 µM
[1]; Week 3 (Infusion 3), 9 hours, N=9
  Initial Extracellular ATP Concentration, Median: 0.170 µM
[1]; Week 3 (Infusion 3), 10 hours, N=9
  Initial Extracellular ATP Concentration, Median: 0.060 µM
[1]; Week 3 (Infusion 3), 11 hours, N=10
  Initial Extracellular ATP Concentration, Median: 0.060 µM
[1]; Week 3 (Infusion 3), 12 hours, N=8
  Initial Extracellular ATP Concentration, Median: 0.065 µM
[1]; Week 3 (Infusion 3), 14 hours, N=6
  Initial Extracellular ATP Concentration, Median: 0.032 µM
[1]; Week 3 (Infusion 3), 16 hours, N=5
  Initial Extracellular ATP Concentration, Median: 0.040 µM
[1]; Week 3 (Infusion 3), 20 hours, N=5
  Initial Extracellular ATP Concentration, Median: 0.070 µM
[1]; Week 3 (Infusion 3), 24 hours, N=8
  Initial Extracellular ATP Concentration, Median: 0.044 µM
[1]; Week 3 (Infusion 3), Time ‘0’ (pre-infusion), N=10
  Initial Extracellular ATP Concentration, Median: 0.055 µM
[1]; Week 3 (Infusion 3), […], N=9
  Initial Extracellular ATP Concentration, Median: 0.200 µM
[1]; Week 8 (infusion 8), 4 hours into infusion, N=3
  Initial Extracellular ATP Concentration, Median: 0.390 µM
[1]; Week 8 (infusion 8), Time ‘0’ (pre-infusion), N=3
  Initial Extracellular ATP Concentration, Median: 0.080 µM
[2]; Week 1 (infusion 1), 4 hours into infusion
  Initial ATP Release Rates Mean: 33.407 nM/min
[2]; Week 1 (infusion 1), 8 hours (before the end)
  Initial ATP Release Rates Mean: 47.224 nM/min
[2]; Week 1 (infusion 1), 8.25 hours
  Initial ATP Release Rates Mean: 10.400 nM/min
[2]; Week 1 (infusion 1), 9 hours
  Initial ATP Release Rates Mean: 25.408 nM/min
[2]; Week 1 (infusion 1), 10 hours
  Initial ATP Release Rates Mean: 13.959 nM/min
[2]; Week 1 (infusion 1), 11 hours
  Initial ATP Release Rates Mean: 14.743 nM/min
[2]; Week 1 (infusion 1), 12 hours
  Initial ATP Release Rates Mean: 12.565 nM/min
[2]; Week 1 (infusion 1), 14 hours
  Initial ATP Release Rates Mean: 12.067 nM/min
[2]; Week 1 (infusion 1), 16 hours
  Initial ATP Release Rates Mean: 15.331 nM/min
[2]; Week 1 (infusion 1), 20 hours
  Initial ATP Release Rates Mean: 20.063 nM/min
[2]; Week 1 (infusion 1), 24 hours
  Initial ATP Release Rates Mean: 17.452 nM/min
[2]; Week 1 (infusion 1), Time 0 (pre-infusion)
  Initial ATP Release Rates Mean: 15.469 nM/min
[2]; Week 1 (infusion 1), […]
  Initial ATP Release Rates Mean: 41.353 nM/min
[2]; Week 3 (Infusion 3), 4 hours into infusion
  Initial ATP Release Rates Mean: 55.414 nM/min
[2]; Week 3 (Infusion 3), 8 hours before the end
  Initial ATP Release Rates Mean: 48.283 nM/min
[2]; Week 3 (Infusion 3), 8.25 hours
  Initial ATP Release Rates Mean: 13.400 nM/min
[2]; Week 3 (Infusion 3), 9 hours
  Initial ATP Release Rates Mean: 34.992 nM/min
[2]; Week 3 (Infusion 3), 10 hours
  Initial ATP Release Rates Mean: 27.342 nM/min
[2]; Week 3 (Infusion 3), 11 hours
  Initial ATP Release Rates Mean: 18.888 nM/min
[2]; Week 3 (Infusion 3), 12 hours
  Initial ATP Release Rates Mean: 14.660 nM/min
[2]; Week 3 (Infusion 3), 14 hours
  Initial ATP Release Rates Mean: 10.390 nM/min
[2]; Week 3 (Infusion 3), 16 hours
  Initial ATP Release Rates Mean: 10.223 nM/min
[2]; Week 3 (Infusion 3), 20 hours
  Initial ATP Release Rates Mean: 11.708 nM/min
[2]; Week 3 (Infusion 3), 24 hours
  Initial ATP Release Rates Mean: 15.880 nM/min
[2]; Week 3 (Infusion 3), Time 0 (pre-infusion)
  Initial ATP Release Rates Mean: 18.228 nM/min
[2]; Week 3 (Infusion 3), […]
  Initial ATP Release Rates Mean: 38.780 nM/min
[2]; Week 8 (infusion 8), 4 hours into infusion
  Initial ATP Release Rates Mean: 28.700 nM/min
[2]; Week 8 (infusion 8), 8 hours (before the end)
  Initial ATP Release Rates Mean: 27.930 nM/min
[2]; Week 8 (infusion 8), 9 hours
  Initial ATP Release Rates Mean: 20.167 nM/min
[2]; Week 8 (infusion 8), 10 hours
  Initial ATP Release Rates Mean: 5.803 nM/min
[2]; Week 8 (infusion 8), 11 hours
  Initial ATP Release Rates Mean: 15.700 nM/min
[2]; Week 8 (infusion 8), 12 hours
  Initial ATP Release Rates Mean: 14.150 nM/min
[2]; Week 8 (infusion 8), 14 hours
  Initial ATP Release Rates Mean: 19.620 nM/min
[2]; Week 8 (infusion 8), 16 hours
  Initial ATP Release Rates Mean: 11.680 nM/min
[2]; Week 8 (infusion 8), 20 hours
  Initial ATP Release Rates Mean: 14.520 nM/min
[2]; Week 8 (infusion 8), 24 hours
  Initial ATP Release Rates Mean: 16.200 nM/min
[2]; Week 8 (infusion 8), Time 0 (pre-infusion)
  Initial ATP Release Rates Mean: 10.967 nM/min
[2]; Week 8 (infusion 8), […]
  Initial ATP Release Rates Mean: 11.267 nM/min
[2]; patients 502-505, time 0 to 8 hours
  average increases in Initial ATP Release Rates (from Red Blood Cells): 200-400%
